For one molecule, EC50 results are on record in patent US20110152183A1, “DERIVATISED HYBRID PEPTIDES OF AMYLIN AND SALMON CALCITONIN” (Novo Nordisk A/S, priority 2008, published 2011).

Peptide text beside a SMILES is read from it.

For the experiment, the target named is T1, Amylin 3(a) receptor (human calcitonin receptor (CTa) + RAMP-3) (Homo sapiens, UniProt O60896+P30988).
T1 construct: expressed in transfected cells; host or cells: BHK570 (baby hamster kidney) cells, stably transfected, with a CRE-luciferase reporter
In words: Amylin luciferase assay (II), CRE luciferase reporter in BHK cells. Particulars: BHK Amylin 3(a)//CRE-luc cells, 4 hours incubation. The class given is cell-based. The text has this: It has previously been published (Poyner D R et al 2002, Pharmacological Reviews 54 (2) 233-246) that activation of Amylin receptors (coexpression of Calcitonin receptor and receptor activity modifying peptides RAMPs) by Amylin leads to an increase in the intracellular concentration of cAMP. Consequently, transcription is activated at promotors containing multiple copies of the cAMP response element (CRE). It is thus possible to measure Amylin activity by use of a CRE luciferase reporter gene introduced into BHK cells also expressing an Amylin receptor.
2. Construction of An Amylin 3(a)/CRE-Luc Cell Line
A BHK570 cell line stably transfected with the human calcitonin receptor (CTa) and a CRE-responsive luciferase reportergene. The cell line was further transfected with RAMP-3, using standard methods. This turns the Calcitonin receptor into an Amylin 3(a) receptor. Methotrexate, Neomycin, and Hygromycin are selection markers for luciferase, the Calcitonin receptor, and RAMP-3, respectively.
3. Amylin Luciferase Assay
To perform activity assays, BHK Amylin 3(a)//CRE-luc cells were seeded in white 96 well culture plates at a density of about 20.000 cells/well. […] Finally, luminescence was measured on a TopCounter (Packard) in SPC (single photon counting) mode.
Background: A reporter such as luciferase makes a cellular process visible.

T1 sequence (O60896 24-148): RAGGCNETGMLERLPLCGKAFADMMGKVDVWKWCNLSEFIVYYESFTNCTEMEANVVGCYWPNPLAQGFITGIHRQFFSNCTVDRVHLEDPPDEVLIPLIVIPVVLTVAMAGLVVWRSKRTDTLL
T1 sequence (P30988 25-474): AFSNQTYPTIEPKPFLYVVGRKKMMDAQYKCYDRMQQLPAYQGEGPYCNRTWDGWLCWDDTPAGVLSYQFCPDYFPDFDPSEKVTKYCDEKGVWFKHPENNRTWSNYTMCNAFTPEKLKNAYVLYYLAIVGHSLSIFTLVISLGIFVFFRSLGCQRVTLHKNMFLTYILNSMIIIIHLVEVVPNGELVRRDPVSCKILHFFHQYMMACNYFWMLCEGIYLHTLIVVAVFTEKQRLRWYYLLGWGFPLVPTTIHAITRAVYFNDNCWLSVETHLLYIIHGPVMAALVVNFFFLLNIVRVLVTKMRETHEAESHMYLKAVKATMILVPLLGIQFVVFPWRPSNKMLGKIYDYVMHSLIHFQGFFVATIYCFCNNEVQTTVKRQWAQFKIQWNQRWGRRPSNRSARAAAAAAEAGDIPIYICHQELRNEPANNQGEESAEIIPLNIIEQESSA

In general, EC50 refers to the concentration at which the effect is half-maximal. For the molecule `CC(C)C[C@H](NC(=O)[C@H](C)NC(=O)[C@@H]1CSSC[C@H](NC(=O)[C@@H](N)CCCCN)C(=O)N[C@@H](CC(N)=O)C(=O)N[C@@H]([C@@H](C)O)C(=O)N[C@@H](C)C(=O)N[C@@H]([C@@H](C)O)C(=O)N1)C(=O)NCC(=O)N[C@@H](CCCNC(=N)N)C(=O)N[C@@H](CC(C)C)C(=O)N[C@@H](CO)C(=O)N[C@@H](CCC(N)=O)C(=O)N[C@@H](CCC(=O)O)C(=O)N[C@@H](CC(C)C)C(=O)N[C@@H](Cc1c[nH]cn1)C(=O)N[C@@H](CCCNC(=N)N)C(=O)N[C@@H](CC(C)C)C(=O)N[C@@H](CCC(N)=O)C(=O)N[C@H](C(=O)N[C@@H](Cc1ccc(O)cc1)C(=O)N1CCC[C@H]1C(=O)N[C@@H](CCCNC(=N)N)C(=O)N[C@H](C(=O)N[C@@H](CC(N)=O)C(=O)N[C@H](C(=O)NCC(=O)N[C@@H](CO)C(=O)N[C@@H](CC(N)=O)C(=O)N[C@H](C(=O)N[C@@H](Cc1ccc(O)cc1)C(N)=O)[C@@H](C)O)[C@@H](C)O)[C@@H](C)O)[C@@H](C)O` [Example 4, Amylin (1-8)-[Arg11,Arg18]sCT (9-27)-amylin (33-37)] (HELM PEPTIDE1{K.C.N.T.A.T.C.A.L.G.R.L.S.Q.E.L.H.R.L.Q.T.Y.P.R.T.N.T.G.S.N.T.Y.[am]}$PEPTIDE1,PEPTIDE1,2:R3-7:R3$$$V2.0; N-terminus assumed), the EC50 worked out at 3 pM.
